Experimental data published in US20240252509A1, “SELF-PRESERVING COMPOSITIONS AND MULTI-USE DISPENSERS FOR ADMINISTERING ALPHA-1062” (priority 2021, published 2024).

Columns and labels:
[1] = tested on: Staphylococcus aureus (ATCC No. 6538); assay: USP 51 Preservative Challenge Test, S. aureus; assay type: cell-based; settings: S. aureus ATCC 6538, 82 mg/mL solution in water
Experimental: (§1) In order to assess the anti-microbial properties of Alpha-1062, the USP (US Pharmacopeia) Chapter 51 Preservative Challenge Test (USP 51) was employed. The USP 51 is a common method used to gauge preservative effectiveness. Much like a Preservative Challenge Screen, it is used to evaluate the effect of preservatives in cosmetics, personal care products, and drug products. Preservatives are typically antimicrobial ingredients that are added to aqueous product formulations to help maintain the safety of the product by inhibiting the growth and reducing the number of microbial contaminants.
(§2) In the context of the present invention, Alpha-1062 (in the form of the gluconate salt) was assessed in place of (as) a preservative. No additional preservative was added to the Alpha-1062 gluconate preparation, rather an anti-microbial effect of the agent itself (Alpha-1062) was assessed. Alpha-1062 is therefore the anti-microbial agent in the assay and experiments described below.
(§3) Cultures of the following microorganisms were applied, as per standard guidelines for USP 51: • Candida albicans (ATCC No. 10231), • Aspergillus brasiliensis (ATCC No. 16404), • Escherichia coli (ATCC No. 8739), • Pseudomonas aeruginosa (ATCC No. 9027), and • Staphylococcus aureus (ATCC No. 6538). […]
(§4) The inoculated containers were incubated at 22.5±2.5° C. and each container was sampled at the appropriate intervals, as specified in Table 3. Any changes observed in the appearance of the culture was recorded at these intervals. By using the plate-count procedure, the number of CFU present in each test preparation was determined for the applicable intervals.
(§5) An inactivator (neutralizer) of the specific antimicrobial was incorporated in the plate count or in the appropriate dilution prepared for plating. These conditions were determined in the validation study for that sample based upon the conditions of media and microbial recovery incubation times listed in Table 2. Using the calculated concentrations of CFU per mL present at the start of the test, the change in log 10 values of the concentration of CFU per mL for each microorganism was calculated at the applicable test intervals, and the changes were expressed in terms of log reductions.
(§6) The requirements for antimicrobial effectiveness are met if the criteria specified under Table 3 are met. No increase is defined as not more than 0.5 log 10 unit higher than the previous value measured. […]
(§7) The USP Criteria for Category 2 were employed in order to determine the presence of an anti-microbial effect. […] For yeast and molds, an antimicrobial effect is evident when no increase from the initial calculated count is determined at 14 and 28 days.

[2] = tested on: Pseudomonas aeruginosa (ATCC No. 9027); assay: USP 51 Preservative Challenge Test, P. aeruginosa; assay type: cell-based; settings: P. aeruginosa ATCC 9027, 82 mg/mL solution in water
Experimental: as §1, §2, §3, §4, §5, §6, §7

[3] = tested on: all 5 organisms tested in the USP 51; assay: USP 51 test, overall assessment against Category 2 criteria; assay type: cell-based; settings: 82 mg/mL solution in water, USP Criteria for Category 2
Experimental: as §1
In the context of the present invention, Alpha-1062 (in the form of the gluconate salt) was assessed in place of (as) a preservative. No additional preservative was added to the Alpha-1062 gluconate preparation, rather an anti-microbial effect of the agent itself (Alpha-1062) was assessed. […]
as §6, §7

[4] = tested on: Escherichia coli (ATCC No. 8739); assay: USP 51 Preservative Challenge Test, E. coli; assay type: cell-based; settings: E. coli ATCC 8739, 82 mg/mL solution in water
Experimental: as §1, §2, §3, §4, §5, §6, §7

[5] = tested on: Candida albicans (ATCC No. 10231); assay: USP 51 Preservative Challenge Test, C. albicans; assay type: cell-based; settings: C. albicans ATCC 10231, 82 mg/mL solution in water
Experimental: as §1, §2, §3, §4, §5, §6, §7

[6] = tested on: Aspergillus brasiliensis (ATCC No. 16404); assay: USP 51 Preservative Challenge Test, A. brasiliensis; assay type: cell-based; settings: A. brasiliensis ATCC 16404, 82 mg/mL solution in water
Experimental: as §1, §2, §3, §4, §5, §6, §7

[7] = salts described in WO 2014/016430; cited from earlier work
[8] = Day 14, log10 reduction from initial count
[9] = Day 28, log10 reduction from initial count

COc1ccc2c3c1O[C@H]1C[C@@H](OC(=O)c4ccccc4)C=C[C@@]31CCN(C)C2 [Alpha-1062 Gluconate]
CFU/mL Day 14 ([1]; Day 14, initial 4.0 × 10^5 CFU/mL): <10 CFU/mL
Log Reduction Day 14 [1, 8]: 4.6
CFU/mL Day 28 ([1]; Day 28, initial 4.0 × 10^5 CFU/mL): <10 CFU/mL
Log Reduction Day 28 [1, 9]: 4.6
CFU/mL Day 14 ([2]; Day 14, initial 2.9 × 10^5 CFU/mL): <10 CFU/mL
Log Reduction Day 14 [2, 8]: 4.5
CFU/mL Day 28 ([2]; Day 28, initial 2.9 × 10^5 CFU/mL): <10 CFU/mL
Log Reduction Day 28 [2, 9]: 4.5
anti-microbial effect in the USP 51 [3]: strong anti-microbial effect
CFU/mL Day 14 ([4]; Day 14, 22.5±2.5° C., initial 9.1 × 10^5 CFU/mL): <10 CFU/mL
Log Reduction Day 14 [4, 8]: 5.0
CFU/mL Day 28 ([4]; Day 28, initial 9.1 × 10^5 CFU/mL): <10 CFU/mL
Log Reduction Day 28 [4, 9]: 5.0
CFU/mL Day 14 ([5]; Day 14, initial 6.7 × 10^5 CFU/mL): <10 CFU/mL
Log Reduction Day 14 [5, 8]: 4.8
CFU/mL Day 28 ([5]; Day 28, initial 6.7 × 10^5 CFU/mL): <10 CFU/mL
Log Reduction Day 28 [5, 9]: 4.8
CFU/mL Day 14 ([6]; Day 14, initial 2.2 × 10^5 CFU/mL): 1.6 × 10^2 CFU/mL
Log Reduction Day 14 [6, 8]: 3.1
CFU/mL Day 28 ([6]; Day 28, initial 2.2 × 10^5 CFU/mL): 1.5 × 10^2 CFU/mL
Log Reduction Day 28 [6, 9]: 3.1
solubility in water [7]: above 10 % weight per volume (w/v)
